In patent US9732063B2, “Kinase inhibitors” (RESPIVERT LIMITED, priority 2012, dated 2017):
Like-named read-outs stand apart in the source and are kept apart here. One block for each molecule: values may come before it.

Legend:
PBMCs [1] = experiment: IL-2 and IFN gamma release in CD3/CD28 stimulated PBMC cells; type: cell-based; settings: Homo sapiens
How it was run: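 They were cultured with compound for 3 days. IL-2 and IFN-γ in supernatants were quantified by sandwich ELISA, and IC50 was derived from the dose-response curve.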

d-U937 cells = experiment: LPS-induced TNFα/IL-8 release in d-U937 cells; type: cell-based; settings: Homo sapiens
Procedure: Cells are pre-incubated with final concentrations of test compound for 2 hr and are then stimulated with 0.1 μg/mL of LPS (from E. coli: O111:B4, Sigma) for 4 hr. The supernatant is collected for determination of TNFα and IL-8 concentrations by sandwich ELISA (Duo-set, R&D systems). […] The relative 50% effective concentration (REC50) is determined from the resultant concentration-response curve. The inhibition of IL-8 production is calculated at each concentration of test compound by comparison with vehicle control.

PBMCs [2] = experiment: LPS-induced TNFα/IL-8 release in PBMC cells; type: cell-based; settings: Homo sapiens, read-out: IC50 Values for Inhibition of Cytokine Release PBMCs IL-8
How it was run: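 Healthy-donor PBMCs, isolated by density gradient, were pretreated with compound for 2 h and then stimulated with 1 ng/mL E. coli O111:B4 LPS for 24 h at 37 °C, 5% CO2. Supernatant IL-8 and TNFα were quantified by sandwich ELISA.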

HT29 cells = experiment: IL-1β-induced IL-8 release in HT29 cells; type: cell-based; settings: Homo sapiens
Procedure: HT29 cells, a human colon adenocarcinoma cell line, are plated in a 96 well plate (24 hrs) and pre-treated with compounds at the desired concentration for 2 hours before addition of 5 ng/mL of IL-1β (Abcam) for 24 hours. Supernatants are harvested for IL-8 quantification by Sandwich ELISA (Duo-set, R&D System). The IC50 is determined from the dose response curve.

p38 MAPKα = p38 MAPKα (Homo sapiens (Human), UniProt Q16539); experiment: p38 MAPKα enzyme inhibition (Z-LYTE FRET, Method 2); type: biochemical
Sequence of p38 MAPKα (Q16539 whole entry): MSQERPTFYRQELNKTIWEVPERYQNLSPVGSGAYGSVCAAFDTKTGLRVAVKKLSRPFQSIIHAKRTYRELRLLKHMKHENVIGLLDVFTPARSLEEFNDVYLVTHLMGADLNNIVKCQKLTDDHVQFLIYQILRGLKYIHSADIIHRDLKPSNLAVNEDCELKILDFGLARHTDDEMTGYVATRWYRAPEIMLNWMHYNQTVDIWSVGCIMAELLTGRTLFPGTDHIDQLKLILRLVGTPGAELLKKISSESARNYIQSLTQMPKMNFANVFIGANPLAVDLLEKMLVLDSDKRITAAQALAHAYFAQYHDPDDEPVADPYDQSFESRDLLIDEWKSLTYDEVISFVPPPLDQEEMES

Syk = Syk (Homo sapiens (Human), UniProt P43405); experiment: Syk enzyme inhibition (Z-LYTE FRET); type: biochemical
How it was run: (§1)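 Kinase activity is measured on a dual-labelled synthetic peptide by FRET. ATP is supplied as an 800 μM solution for c-Src and a 60 μM solution for Syk. Compound is tested at four added concentrations, 4 to 0.004 μg/mL.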

GSK3α = GSK3α (Homo sapiens (Human), UniProt P49840); experiment: GSK 3α enzyme inhibition (Z-LYTE FRET, Method 2); type: biochemical
Sequence of GSK3α (P49840 whole entry): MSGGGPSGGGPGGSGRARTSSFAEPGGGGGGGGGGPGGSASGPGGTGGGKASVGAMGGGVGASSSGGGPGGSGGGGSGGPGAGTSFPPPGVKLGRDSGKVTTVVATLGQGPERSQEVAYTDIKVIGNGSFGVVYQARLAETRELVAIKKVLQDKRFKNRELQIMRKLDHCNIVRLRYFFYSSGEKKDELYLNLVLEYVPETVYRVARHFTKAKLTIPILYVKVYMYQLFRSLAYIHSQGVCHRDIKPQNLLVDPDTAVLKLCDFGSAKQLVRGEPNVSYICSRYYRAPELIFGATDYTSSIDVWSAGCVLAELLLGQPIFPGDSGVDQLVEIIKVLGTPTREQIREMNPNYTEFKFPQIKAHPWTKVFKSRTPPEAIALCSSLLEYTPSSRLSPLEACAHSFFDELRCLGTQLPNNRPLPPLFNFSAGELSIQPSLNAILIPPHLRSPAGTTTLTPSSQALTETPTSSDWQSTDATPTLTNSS
How it was run: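 Z-LYTE FRET: GSK3α preincubated with compound 2 h at RT, then FRET peptide and ATP added (stocks 8 μM and 40 μM) for 1 h, followed by 1 h protease development. Compound stocks 4–0.004 μg/mL; phosphorylation from coumarin/fluorescein emission ratio.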

c-Src = c-Src (Homo sapiens (Human), UniProt P12931); experiment: c-Src enzyme inhibition (Z-LYTE FRET); type: biochemical
Sequence of c-Src (P12931 whole entry, looked up): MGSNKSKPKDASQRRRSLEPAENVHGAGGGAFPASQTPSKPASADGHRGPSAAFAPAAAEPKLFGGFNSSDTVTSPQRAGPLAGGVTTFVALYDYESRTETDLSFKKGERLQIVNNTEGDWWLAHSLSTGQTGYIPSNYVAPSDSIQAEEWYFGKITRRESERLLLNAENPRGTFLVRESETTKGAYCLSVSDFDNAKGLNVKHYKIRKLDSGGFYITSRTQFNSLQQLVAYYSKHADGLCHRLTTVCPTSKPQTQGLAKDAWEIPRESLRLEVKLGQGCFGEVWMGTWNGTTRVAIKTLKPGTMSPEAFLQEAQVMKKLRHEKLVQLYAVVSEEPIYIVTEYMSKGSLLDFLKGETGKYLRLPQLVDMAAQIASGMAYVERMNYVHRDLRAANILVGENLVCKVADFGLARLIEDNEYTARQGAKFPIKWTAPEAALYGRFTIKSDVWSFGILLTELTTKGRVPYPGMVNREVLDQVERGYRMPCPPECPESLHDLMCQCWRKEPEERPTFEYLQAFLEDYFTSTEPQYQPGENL
How it was run: as §1

TNBS-induced colitis = settings: for LP inflammation / Ulcer grade: oral gavage BID, conducted over 2 days, mice; for inflammatory cell infiltrate in the reticular and laminar propria zone / ulcer grade and epithelial repair compared to the vehicle control: dosed orally at either 1 or 5 mg/kg
Procedure: On Day 0 of the study TNBS (200 μL) is administered intra-colonically via a plastic catheter followed by BID dosing of the vehicle, reference or test compound for 2 or 4 days. During the study animals are weighed every day and stool observations are made and recorded as a score, based on stool consistency. At the time of sacrifice on Day 2 (or Day 4) the large intestine is removed and the length and weight recorded. Sections of the colon are taken for either MPO analysis to determine neutrophil infiltration or for histopathology involving scoring to determine disease severity.

[3] = system: intestinal mucosa biopsies from the inflamed regions of the colon; experiment: Human biopsy assay (intestinal mucosa biopsies of ulcerative colitis patients); type: cell-based; settings: 24 hours; for cytokine (IL-1β, IL-6 and IL-8) release compared to the DMSO control: biopsies from ulcerative colitis patients; for IL-1β release / IL-6 release / IL-8 release: 1 μg/ml, biopsies of UC patients, DMSO control = 100%
Procedure: Intestinal mucosa biopsies are obtained from the inflamed regions of the colon of IBD patients. […] DMSO control or test compounds at the desired concentration are added to the tissue and incubated for 24 hr in the organ culture chamber. The supernatant is harvested for determination of IL-6, IL-8, IL-1β and TNFα levels by R&D ELISA.

[4] = read-out: IC50 Values for Inhibition of Cytokine Release PBMCs IL-2
[5] = dU937, read-out: IC50 Values for Inhibition of Cytokine Release dU937 cells IL-8
[6] = dU937, read-out: IC50 Values for Inhibition of Cytokine Release dU937 cells TNFα
[7] = HT-29, read-out: IC50 Values for Inhibition of Cytokine Release HT29 cells IL-8
[8] = read-out: IC50 Values for Inhibition of Cytokine Release PBMCs IFNγ

- IC50 (d-U937 cells; dU937, LPS-stimulated d-U937 cells, method describes REC50 relative to BIRB796, read-out: IC50 Values for Inhibition of Cytokine Release dU937 cells TNFα): 0.0036 µM
- IC50 (d-U937 cells; dU937, LPS-stimulated d-U937 cells, read-out: IC50 Values for Inhibition of Cytokine Release dU937 cells IL-8): 0.0021 µM
- IC50 (HT29 cells; HT-29, IL-1β-stimulated HT29 cells, read-out: IC50 Values for Inhibition of Cytokine Release HT29 cells IL-8): 0.0174 µM
- IC50 (p38 MAPKα): 0.316 µM
- IC50 (Syk): 0.077 µM
- IC50 (GSK3α): > 10 µM
- IC50 (c-Src): 0.028 µM
SMILES: C#Cc1cccc(Nc2nccc(Oc3ccc(NC(=O)Nc4cc(C(C)(C)C)nn4-c4ccc(OC)nc4)c4ccccc34)n2)c1 [Example 1, 1-(3-(tert-Butyl)-1-(6-methoxypyridin-3-yl)-1H-pyrazol-5-yl)-3-(4-((2-((3-ethynylphenyl)-amino)pyrimidin-4-yl)oxy)naphthalen-1-yl)urea]
- IC50 (PBMCs [1]; CD3/CD28 stimulated PBMCs, read-out: IC50 Values for Inhibition of Cytokine Release PBMCs IL-2): 0.0398 µM
- IC50 (PBMCs [2]; LPS-stimulated PBMCs): 0.0115 µM

SMILES: COc1ccc(-n2nc(C(C)(C)C)cc2NC(=O)Nc2ccc(Oc3ccnc(Nc4cccc(N=S(C)(C)=O)c4)n3)c3ccccc23)cn1 [Example 2]
- IC50 (PBMCs [1]; [4]): 0.0511 µM
- IC50 (d-U937 cells; [5]): 0.0052 µM
- IC50 (d-U937 cells; [6]): 0.0165 µM
- IC50 (PBMCs [2]): 0.0053 µM
- IC50 (HT29 cells; [7]): 0.0185 µM
- IC50 (p38 MAPKα): 0.081 µM
- IC50 (Syk): 0.015 µM
- IC50 (GSK3α): 1.85 µM
- IC50 (c-Src): 0.008 µM

SMILES: COCCOCCOCCOc1cccc(Nc2nccc(Oc3ccc(NC(=O)Nc4cc(C(C)C)nn4-c4ccc(C)cc4)c4ccccc34)n2)c1 [Example 9, 1-(3-Isopropyl-1-(P-tolyl)-1H-pyrazol-5-yl)-3-(4-((2-((3-(2-(2-(2-methoxyethoxy)ethoxy)-ethoxy)phenyl)amino)pyrimidin-4-yl)oxy)naphthalen-1-yl)urea]
- IC50 (d-U937 cells; [5]): 0.0028 µM
- IC50 (d-U937 cells; [6]): 0.0015 µM
- IC50 (PBMCs [2]): 0.0031 µM
- IC50 (HT29 cells; [7]): 0.0045 µM
- IC50 (p38 MAPKα): 0.026 µM
- IC50 (Syk): > 1 µM
- IC50 (GSK3α): 3.72 µM
- IC50 (c-Src): 0.154 µM

SMILES: Cc1ccc(-n2nc(C(C)C)cc2NC(=O)Nc2ccc(Oc3ccnc(Nc4cccc(OS(C)(=O)=O)c4)n3)c3ccccc23)cc1 [Example 11, 3-(4-((4-(3-(3-Isopropyl-1-(p-tolyl)-1H-pyrazol-5-yl)ureido)naphthalen-1-yl)oxy)pyrimidin-2-yl)amino)phenyl methanesulfonate]
- IC50 (PBMCs [1]; [4]): 0.151 µM
- IC50 (d-U937 cells; [5]): 0.0014 µM
- IC50 (d-U937 cells; [6]): 0.0009 µM
- IC50 (PBMCs [2]): 0.0036 µM
- IC50 (HT29 cells; [7]): 0.0053 µM
- IC50 (p38 MAPKα): 0.05 µM
- IC50 (Syk): > 0.622 µM
- IC50 (GSK3α): 8.65 µM
- IC50 (c-Src): 0.02 µM

SMILES: COCCOCCOCCOc1cc(Nc2nccc(Oc3ccc(NC(=O)Nc4cc(C(C)C)nn4-c4ccc(C)cc4)c4ccccc34)n2)cc(OC)c1 [Example 13, 1-(3-Isopropyl-1-(p-tolyl)-1H-pyrazol-5-yl)-3-(4-((2-((3-methoxy-5-(2-(2-(2-methoxy-ethoxy)ethoxy)ethoxy)phenyl)amino)pyrimidin-4-yl)oxy)naphthalen-1-yl)urea]
- IC50 (PBMCs [1]; [8]): 0.003 µM
- IC50 (PBMCs [1]; [4]): 0.0192 µM
- IC50 (d-U937 cells; [5]): 0.0014 µM
- IC50 (d-U937 cells; [6]): 0.0044 µM
- LP inflammation (TNBS-induced colitis; 1 mg/kg): 2.1 ± 0.3
- Ulcer grade (TNBS-induced colitis; 1 mg/kg): 2.5 ± 0.4
- LP inflammation (TNBS-induced colitis; 5 mg/kg): 2.6 ± 0.3
- Ulcer grade (TNBS-induced colitis; 5 mg/kg): 3.1 ± 0.3
- inflammatory cell infiltrate in the reticular and laminar propria zone (TNBS-induced colitis): marked reduction
- ulcer grade and epithelial repair compared to the vehicle control (TNBS-induced colitis): marked improvements
- cytokine (IL-1β, IL-6 and IL-8) release compared to the DMSO control ([3]; 0.1 μg/mL (data not shown)): significantly inhibited
- cytokine (IL-1β, IL-6 and IL-8) release compared to the DMSO control ([3]; 1 μg/mL): significantly inhibited
- IL-1β release [3]: 10 ± 13%
- IL-6 release [3]: 32 ± 64%
- IL-8 release [3]: 3 ± 4%
- IC50 (PBMCs [2]): 0.0025 µM
- IC50 (HT29 cells; [7]): 0.0047 µM
- IC50 (p38 MAPKα): 0.065 µM
- IC50 (GSK3α): > 8.92 µM
- IC50 (c-Src): 0.01 µM

SMILES: COCCOCCOCCOc1cc(Nc2nccc(Oc3ccc(NC(=O)Nc4cc(C(C)(C)C)nn4-c4ccc(C)cc4)c4ccccc34)n2)cc(OC)c1 [Example 37, 1-(3-(tert-Butyl)-1-(p-tolyl)-1H-pyrazol-5-yl)-3-(4-((2-((3-methoxy-5-(2-(2-(2-methoxy-ethoxy)ethoxy)ethoxy)phenyl)amino)pyrimidin-4-yl)oxy)naphthalen-1-yl)urea]
- IC50 (PBMCs [1]; [8]): 0.0015 µM
- IC50 (PBMCs [1]; [4]): 0.0348 µM
- IC50 (d-U937 cells; [5]): 0.0017 µM
- IC50 (PBMCs [2]): 0.0018 µM
- IC50 (HT29 cells; [7]): 0.0017 µM
- IC50 (p38 MAPKα): 0.153 µM
- IC50 (Syk): 0.036 µM
- IC50 (GSK3α): 6.36 µM
- IC50 (c-Src): 0.011 µM

SMILES: COCCOCCOCCOc1cc(Nc2nccc(Oc3ccc(NC(=O)Nc4cc(C(C)(C)C)nn4-c4ccc(OC)nc4)c4ccccc34)n2)cc(OC)c1 [Example 38, 1-(3-(tert-Butyl)-1-(6-methoxypyridin-3-yl)-1H-pyrazol-5-yl)-3-(4-((2-((3-methoxy-5-(2-(2-(2-methoxyethoxyl)ethoxy)ethoxy)phenyl)amino)pyrimidin-4-yl)oxy)naphthalen-1-yl)urea]
- IC50 (PBMCs [1]; [8]): 0.0013 µM
- IC50 (PBMCs [1]; [4]): 0.0409 µM
- IC50 (d-U937 cells; [5]): 0.001 µM
- IC50 (PBMCs [2]): 0.0015 µM
- IC50 (HT29 cells; [7]): 0.0018 µM
- IC50 (p38 MAPKα): 0.132 µM
- IC50 (Syk): 0.025 µM
- IC50 (GSK3α): 5.45 µM
- IC50 (c-Src): 0.01 µM

SMILES: COc1cc(Nc2nccc(Oc3ccc(NC(=O)Nc4cc(C(C)(C)C)nn4-c4ccc(C)cc4)c4ccccc34)n2)cc(S(=O)(=O)C2CC2)c1 [Example 47, 1-(3-(tert-Butyl)-1-(p-tolyl)-1H-pyrazol-5-yl)-3-(4-((2-((3-(cyclopropylsulfonyl)-5-methoxy-phenyl)amino)pyrimidin-4-yl)oxy)naphthalen-1-yl)urea]
- IC50 (PBMCs [1]; [8]): 0.0011 µM
- IC50 (PBMCs [1]; [4]): 0.0958 µM
- IC50 (d-U937 cells; [5]): 0.0012 µM
- IC50 (d-U937 cells; [6]): 0.0006 µM
- LP inflammation (TNBS-induced colitis; 1 mg/kg): 2.6 ± 0.3
- Ulcer grade (TNBS-induced colitis; 1 mg/kg): 3.5 ± 0.4
- LP inflammation (TNBS-induced colitis; 5 mg/kg): 2.1 ± 0.3
- Ulcer grade (TNBS-induced colitis; 5 mg/kg): 2.8 ± 0.4
- inflammatory cell infiltrate in the reticular and laminar propria zone (TNBS-induced colitis): marked reduction
- ulcer grade and epithelial repair compared to the vehicle control (TNBS-induced colitis): marked improvements
- cytokine (IL-1β, IL-6 and IL-8) release compared to the DMSO control ([3]; 1 μg/mL): significantly inhibited
- IL-1β release [3]: 5 ± 6%
- IL-6 release [3]: 17 ± 5%
- IL-8 release [3]: 26 ± 15%
- IC50 (PBMCs [2]): 0.0026 µM
- IC50 (HT29 cells; [7]): 0.0015 µM
- IC50 (p38 MAPKα): 0.162 µM
- IC50 (GSK3α): 6.83 µM
- IC50 (c-Src): 0.046 µM

SMILES: COCCOCCOCCOc1cc(Nc2nccc(Oc3ccc(NC(=O)Nc4cc(C(C)(C)C)nn4-c4ccc(C)cc4)c4ccccc34)n2)cc(OC)n1 [Example 69, 1-(3-(tert-Butyl)-1-(p-tolyl)-1H-pyrazol-5-yl)-3-(4-((2-((2-methoxy-6-(2-(2-(2-methoxyethoxy)ethoxy)ethoxy)pyridin-4-yl)amino)pyrimidin-4-yl)oxy)naphthalen-1-yl)urea]
- IC50 (PBMCs [1]; [8]): 0.0014 µM
- IC50 (PBMCs [1]; [4]): 0.0503 µM
- IC50 (d-U937 cells; [5]): 0.0009 µM
- IC50 (d-U937 cells; [6]): 0.0012 µM
- IC50 (PBMCs [2]): 0.0016 µM
- IC50 (HT29 cells; [7]): 0.0031 µM
- IC50 (p38 MAPKα): 0.172 µM
- IC50 (Syk): 0.027 µM
- IC50 (GSK3α): > 10 µM
- IC50 (c-Src): 0.014 µM
